Experimental data: article PMC11193023 (The Journal of Biological Chemistry, 2024)

Target: T1, BwCuyA (Bilophila wadsworthia, UniProt E5Y343)
T1 sequence (E5Y343 1-333): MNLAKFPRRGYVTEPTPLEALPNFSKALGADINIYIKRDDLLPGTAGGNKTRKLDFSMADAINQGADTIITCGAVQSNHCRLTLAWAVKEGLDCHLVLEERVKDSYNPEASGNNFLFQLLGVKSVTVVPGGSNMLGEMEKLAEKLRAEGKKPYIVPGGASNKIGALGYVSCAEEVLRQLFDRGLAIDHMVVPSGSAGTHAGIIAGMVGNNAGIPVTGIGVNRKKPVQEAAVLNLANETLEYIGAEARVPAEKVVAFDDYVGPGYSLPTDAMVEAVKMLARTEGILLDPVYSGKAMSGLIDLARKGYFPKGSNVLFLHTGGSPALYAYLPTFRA
Assay: UV-Vis absorbance spectrum of purified enzyme
Type: binding
Conditions: enzyme as isolated; sub-stoichiometric PLP content

In the case of `Cc1ncc(COP(=O)(O)O)c(C=O)c1O` [PLP], the “UV-Vis absorbance spectrum of purified enzyme” value is reported as “UV-Vis absorbance spectrum of BwCuyA exhibited characteristic features of the PLP cofactor”.
